Data from patent publication US20140179664A1, “Heterocyclyl Pyrimidine Analogues As JAK Inhibitors” (Cellzome Limited, priority 2011, published 2014).

What was measured:
Assay type in all cases: binding
JAK3 = molecular target: T1, JAK3 (Homo sapiens, UniProt P52333); experiment: Kinobeads assay, JAK3; settings: mixed Molt4/Ramos lysate, read-out: Inhibition values (IC50) JAK3
T1 construct: endogenous in cells; host or cells: Molt4 (ATCC CRL-1582) and Ramos (ATCC CRL-1596), mixed lysate 1:2
T1 sequence (P52333 1-1124): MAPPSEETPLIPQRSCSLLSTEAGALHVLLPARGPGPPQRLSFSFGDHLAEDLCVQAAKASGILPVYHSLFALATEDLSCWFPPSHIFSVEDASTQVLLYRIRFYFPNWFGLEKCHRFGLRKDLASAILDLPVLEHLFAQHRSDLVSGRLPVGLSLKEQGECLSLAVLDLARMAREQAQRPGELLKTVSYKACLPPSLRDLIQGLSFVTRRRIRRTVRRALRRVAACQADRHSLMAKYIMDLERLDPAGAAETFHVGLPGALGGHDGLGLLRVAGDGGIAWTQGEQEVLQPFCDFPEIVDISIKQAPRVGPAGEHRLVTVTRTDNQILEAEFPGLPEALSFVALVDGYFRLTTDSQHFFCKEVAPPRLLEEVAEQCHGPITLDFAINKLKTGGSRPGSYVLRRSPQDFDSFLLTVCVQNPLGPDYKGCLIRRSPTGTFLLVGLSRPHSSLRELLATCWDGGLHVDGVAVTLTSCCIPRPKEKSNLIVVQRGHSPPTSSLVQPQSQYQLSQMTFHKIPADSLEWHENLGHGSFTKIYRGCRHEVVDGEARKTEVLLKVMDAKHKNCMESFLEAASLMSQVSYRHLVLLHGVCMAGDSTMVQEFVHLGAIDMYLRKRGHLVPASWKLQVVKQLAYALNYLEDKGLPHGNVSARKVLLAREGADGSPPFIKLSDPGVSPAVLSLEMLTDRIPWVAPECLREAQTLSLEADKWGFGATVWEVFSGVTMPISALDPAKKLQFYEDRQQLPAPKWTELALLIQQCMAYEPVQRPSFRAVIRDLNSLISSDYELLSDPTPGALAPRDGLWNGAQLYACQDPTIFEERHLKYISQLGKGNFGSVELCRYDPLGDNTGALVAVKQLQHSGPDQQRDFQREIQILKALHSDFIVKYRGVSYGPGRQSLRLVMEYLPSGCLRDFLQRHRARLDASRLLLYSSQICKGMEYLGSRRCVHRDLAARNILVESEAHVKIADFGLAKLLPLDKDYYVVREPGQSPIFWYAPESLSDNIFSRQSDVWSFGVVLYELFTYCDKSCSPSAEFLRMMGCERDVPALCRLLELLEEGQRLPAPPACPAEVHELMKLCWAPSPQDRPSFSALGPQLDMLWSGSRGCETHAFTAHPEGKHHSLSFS
In short: (§1)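 IC50s come from capture competition: compound at various concentrations versus an immobilized aminopyrido-pyrimidine ligand for kinases in 1:2 Molt4/Ramos lysate (10 mg/mL), 3 h in a cold room. Captured JAK-family kinases were measured by specific-antibody dot blot with Odyssey infrared detection.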

TYK2 = molecular target: T2, TYK2 (Homo sapiens, UniProt P29597); experiment: Kinobeads assay, TYK2; settings: mixed Molt4/Ramos lysate, read-out: Inhibition values (IC50) TYK2
T2 construct: endogenous in cells; host or cells: Molt4 (ATCC CRL-1582) and Ramos (ATCC CRL-1596), mixed lysate 1:2
T2 sequence (P29597 whole entry): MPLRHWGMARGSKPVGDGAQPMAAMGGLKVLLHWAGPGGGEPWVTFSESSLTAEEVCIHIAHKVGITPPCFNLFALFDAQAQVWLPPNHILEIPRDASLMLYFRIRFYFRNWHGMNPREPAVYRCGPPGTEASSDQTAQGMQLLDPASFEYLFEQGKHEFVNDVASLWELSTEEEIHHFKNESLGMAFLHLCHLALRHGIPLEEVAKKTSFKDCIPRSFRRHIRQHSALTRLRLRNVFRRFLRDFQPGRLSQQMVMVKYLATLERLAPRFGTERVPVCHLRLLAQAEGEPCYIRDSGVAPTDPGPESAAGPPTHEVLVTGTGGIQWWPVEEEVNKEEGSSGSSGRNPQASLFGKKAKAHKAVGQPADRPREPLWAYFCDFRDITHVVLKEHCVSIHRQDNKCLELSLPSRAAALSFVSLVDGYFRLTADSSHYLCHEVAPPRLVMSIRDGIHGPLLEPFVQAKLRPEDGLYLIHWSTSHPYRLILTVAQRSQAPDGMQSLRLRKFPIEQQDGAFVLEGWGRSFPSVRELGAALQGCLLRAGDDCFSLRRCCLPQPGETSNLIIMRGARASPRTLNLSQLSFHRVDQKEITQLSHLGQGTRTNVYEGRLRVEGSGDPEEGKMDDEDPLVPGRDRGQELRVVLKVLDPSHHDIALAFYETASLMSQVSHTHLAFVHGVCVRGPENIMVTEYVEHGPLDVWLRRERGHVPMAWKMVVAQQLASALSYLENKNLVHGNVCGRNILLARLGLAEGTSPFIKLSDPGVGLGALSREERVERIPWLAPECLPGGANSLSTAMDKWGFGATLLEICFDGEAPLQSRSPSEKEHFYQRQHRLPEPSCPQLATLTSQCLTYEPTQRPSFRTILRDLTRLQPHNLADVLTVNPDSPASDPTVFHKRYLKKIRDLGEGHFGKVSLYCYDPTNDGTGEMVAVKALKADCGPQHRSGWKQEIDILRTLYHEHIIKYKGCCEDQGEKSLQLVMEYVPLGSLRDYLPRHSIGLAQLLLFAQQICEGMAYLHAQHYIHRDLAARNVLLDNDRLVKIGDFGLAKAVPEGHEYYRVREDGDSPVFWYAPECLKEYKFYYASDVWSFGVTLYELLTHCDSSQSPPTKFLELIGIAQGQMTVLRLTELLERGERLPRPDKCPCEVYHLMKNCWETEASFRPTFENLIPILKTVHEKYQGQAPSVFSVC
In short: as §1

JAK2 = molecular target: T3, JAK2 (Homo sapiens, UniProt O60674); experiment: Kinobeads assay, JAK2; settings: mixed Molt4/Ramos lysate, read-out: Inhibition values (IC50) JAK2
T3 construct: endogenous in cells; host or cells: Molt4 (ATCC CRL-1582) and Ramos (ATCC CRL-1596), mixed lysate 1:2
T3 sequence (O60674 whole entry): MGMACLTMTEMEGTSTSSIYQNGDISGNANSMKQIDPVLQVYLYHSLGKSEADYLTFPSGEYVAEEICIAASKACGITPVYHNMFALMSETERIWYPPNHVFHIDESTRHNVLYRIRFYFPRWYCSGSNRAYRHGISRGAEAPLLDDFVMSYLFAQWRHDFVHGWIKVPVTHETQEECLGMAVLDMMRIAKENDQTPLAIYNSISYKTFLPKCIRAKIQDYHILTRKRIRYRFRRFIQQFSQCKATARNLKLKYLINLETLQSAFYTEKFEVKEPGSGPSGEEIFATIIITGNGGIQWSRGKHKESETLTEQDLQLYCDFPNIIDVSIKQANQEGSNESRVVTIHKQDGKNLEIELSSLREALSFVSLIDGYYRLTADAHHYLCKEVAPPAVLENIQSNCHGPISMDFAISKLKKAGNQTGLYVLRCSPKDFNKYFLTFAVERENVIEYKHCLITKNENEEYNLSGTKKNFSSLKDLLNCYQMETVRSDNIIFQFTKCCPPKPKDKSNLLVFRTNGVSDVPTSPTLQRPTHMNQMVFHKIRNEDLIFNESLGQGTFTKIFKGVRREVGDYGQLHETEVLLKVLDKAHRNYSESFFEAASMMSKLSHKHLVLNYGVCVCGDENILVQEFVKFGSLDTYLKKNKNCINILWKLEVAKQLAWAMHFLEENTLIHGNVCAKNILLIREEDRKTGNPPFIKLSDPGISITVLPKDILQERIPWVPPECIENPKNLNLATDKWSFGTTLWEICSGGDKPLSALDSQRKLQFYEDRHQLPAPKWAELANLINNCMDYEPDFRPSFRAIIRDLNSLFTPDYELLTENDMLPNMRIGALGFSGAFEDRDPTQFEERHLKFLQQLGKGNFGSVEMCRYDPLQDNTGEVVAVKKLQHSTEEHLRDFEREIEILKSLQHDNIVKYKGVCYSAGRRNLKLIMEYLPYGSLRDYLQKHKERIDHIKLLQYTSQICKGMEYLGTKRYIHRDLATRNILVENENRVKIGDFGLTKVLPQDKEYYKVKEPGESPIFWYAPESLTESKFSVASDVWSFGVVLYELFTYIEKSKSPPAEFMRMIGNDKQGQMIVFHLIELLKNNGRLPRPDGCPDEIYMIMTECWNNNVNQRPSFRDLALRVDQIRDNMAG
In short: as §1

| SMILES | IC50 (JAK3) | IC50 (TYK2) | IC50 (JAK2) |
| --- | --- | --- | --- |
| CNC(=O)Cn1cc(Nc2ncc(Cl)c(NC(CO)c3ccccc3F)n2)cn1 (stereo not drawn) [Compound 33] | < 100 nM | 1000 to 10000 nM | 1000 to 10000 nM |
| CNC(=O)Cn1cc(Nc2ncc(Cl)c(N[C@H](CCO)c3ccccc3)n2)cn1 [Compound 66] | 100 to 1000 nM | 1000 to 10000 nM | 1000 to 10000 nM |
| Cn1cc(Nc2ncc(Cl)c(N[C@H](C(=O)NC3CCCC3)c3ccccc3)n2)cn1 [Compound 59] | 100 to 1000 nM | ≥ 10000 nM | ≥ 10000 nM |
| NC(=O)Cn1cc(Nc2ncc(Cl)c(N[C@H](CO)c3ccccc3F)n2)cn1 [Compound 78] | < 100 nM | 100 to 1000 nM | 1000 to 10000 nM |
| O=C(O)C(Nc1nc(Nc2cnn(CCO)c2)ncc1Cl)c1ccccc1 (stereo not drawn) [Compound 17] | 100 to 1000 nM | ≥ 10000 nM | ≥ 10000 nM |
| OCCCn1cc(Nc2ncc(Cl)c(NC(CO)c3ccccc3F)n2)cn1 (stereo not drawn) [Compound 64] | < 100 nM | 1000 to 10000 nM | 1000 to 10000 nM |
| CC(O)Cn1cc(Nc2ncc(Cl)c(NC(CO)c3cccc(F)c3)n2)cn1 (stereo not drawn) [Compound 38] | < 100 nM | 1000 to 10000 nM | 1000 to 10000 nM |
| Cn1cc(Nc2ncc(Cl)c(N[C@H](C(=O)N3CCCCC3)c3ccccc3)n2)cn1 [Compound 49] | 100 to 1000 nM | ≥ 10000 nM | ≥ 10000 nM |
| CN(C)C(=O)Cn1cc(Nc2ncc(Cl)c(N[C@H](CO)c3ccccc3)n2)cn1 [Compound 30] | < 100 nM | 100 to 1000 nM | 1000 to 10000 nM |
| OC[C@@H](Nc1nc(Nc2cn[nH]c2)ncc1Cl)c1ccccc1F [Compound 79] | < 100 nM | 1000 to 10000 nM | 1000 to 10000 nM |
| COc1cccc([C@@H](CO)Nc2nc(Nc3cnn(CCO)c3)ncc2Cl)c1 [Compound 83] | < 100 nM | 1000 to 10000 nM | 1000 to 10000 nM |
| COc1cccc([C@@H](CO)Nc2nc(Nc3cnn(CC(N)=O)c3)ncc2Cl)c1 [Compound 84] | < 100 nM | 1000 to 10000 nM | ≥ 10000 nM |
| Cn1cc(Nc2ncc(Cl)c(NC(CO)c3ccccc3F)n2)cn1 (stereo not drawn) [Compound 37] | < 100 nM | 1000 to 10000 nM | 1000 to 10000 nM |
| O=C(Cn1cc(Nc2ncc(Cl)c(N[C@H](CO)c3ccccc3)n2)cn1)NC1CC1 [Compound 68] | < 100 nM | 100 to 1000 nM | 1000 to 10000 nM |
| CNC(=O)Cn1cc(Nc2ncc(Cl)c(NC(CO)c3cccc(F)c3)n2)cn1 (stereo not drawn) [Compound 32] | < 100 nM | 1000 to 10000 nM | 1000 to 10000 nM |
| CNC(=O)Cn1cc(Nc2ncc(Cl)c(N[C@H](CO)c3cccnc3)n2)cn1 [Compound 170] | < 100 nM | 1000 to 10000 nM | 1000 to 10000 nM |
| Cc1cnc(Nc2cnn(CC(F)F)c2)nc1NC(CO)c1c(F)cccc1F (stereo not drawn) [Compound 168] | 100 to 1000 nM | 1000 to 10000 nM | ≥ 10000 nM |

| SMILES | IC50 (JAK3) | IC50 (TYK2) | IC50 (JAK2) |
| --- | --- | --- | --- |
| OCC[C@@H](Nc1nc(Nc2cnn(CCO)c2)ncc1Cl)c1ccccc1 [Compound 65] | 100 to 1000 nM | 1000 to 10000 nM | 1000 to 10000 nM |
| OCCn1cc(Nc2ncc(Cl)c(N[C@H](CO)c3ccccc3F)n2)cn1 [Compound 77] | < 100 nM | 100 to 1000 nM | 1000 to 10000 nM |
| COC[C@@H](Nc1nc(Nc2cnn(C)c2)ncc1Cl)c1ccccc1 [Compound 55] | 100 to 1000 nM | ≥ 10000 nM | ≥ 10000 nM |
| CC(C)(C(N)=O)n1cc(Nc2ncc(Cl)c(N[C@H](CO)c3ccccc3F)n2)cn1 [Compound 73] | < 100 nM | 1000 to 10000 nM | 1000 to 10000 nM |
| OCCn1cc(Nc2ncc(Cl)c(NC(CO)c3ccc(F)cc3)n2)cn1 (stereo not drawn) [Compound 72] | 100 to 1000 nM | 1000 to 10000 nM | ≥ 10000 nM |
| CC(O)Cn1cc(Nc2ncc(Cl)c(NC(CO)c3c(F)cccc3F)n2)cn1 (stereo not drawn) [Compound 42] | < 100 nM | 100 to 1000 nM | 1000 to 10000 nM |
| Cn1cc(Nc2ncc(Cl)c(NC(CO)c3cccc(Br)c3)n2)cn1 (stereo not drawn) [Compound 52] | 100 to 1000 nM | 1000 to 10000 nM | ≥ 10000 nM |
| CCOC(=O)Cn1cc(Nc2ncc(Cl)c(N[C@H](CO)c3ccccc3)n2)cn1 [Compound 22] | < 100 nM | 100 to 1000 nM | 1000 to 10000 nM |
| Cn1cc(Nc2ncc(Cl)c(NC(CO)c3c(F)cccc3F)n2)cn1 (stereo not drawn) [Compound 44] | < 100 nM | 1000 to 10000 nM | 1000 to 10000 nM |
| CN(CC#N)C(=O)Cn1cc(Nc2ncc(Cl)c(N[C@H](CO)c3ccccc3)n2)cn1 [Compound 70] | < 100 nM | 100 to 1000 nM | 1000 to 10000 nM |
| Cn1cc(Nc2ncc(Cl)c(N[C@H](C(=O)NCCO)c3ccccc3)n2)cn1 [Compound 46] | < 100 nM | 1000 to 10000 nM | 1000 to 10000 nM |
| Cn1cc(Nc2ncc(Cl)c(NC(CO)c3ccccc3)n2)cn1 (stereo not drawn) [Compound 1] | < 100 nM | 1000 to 10000 nM | ≥ 10000 nM |
| O=C([C@@H](Nc1nc(Nc2cnn(CCO)c2)ncc1Cl)c1ccccc1)N1CCCCC1 [Compound 51] | 100 to 1000 nM | ≥ 10000 nM | ≥ 10000 nM |
| Cn1cc(Nc2ncc(Cl)c(NC(C(=O)O)c3ccccc3)n2)cn1 (stereo not drawn) [Compound 18] | < 100 nM | 1000 to 10000 nM | 1000 to 10000 nM |
| CN(C)C(=O)[C@@H](Nc1nc(Nc2cnn(C)c2)ncc1Cl)c1ccccc1 [Compound 25] | 100 to 1000 nM | ≥ 10000 nM | ≥ 10000 nM |
| COC(=O)C(Nc1nc(Nc2cnn(CCO)c2)ncc1Cl)c1ccccc1 (stereo not drawn) [Compound 15] | 100 to 1000 nM | 1000 to 10000 nM | ≥ 10000 nM |
